Earlier results in US4535248A, “Method for detecting aflatoxin in almonds” (priority 1984, dated 1985).

Test system: rats
Settings: for estimated effective dose, hepatocarcinogens (for comparison): similar estimates for other hepatocarcinogens

COc1cc2c(c3oc(=O)c4c(c13)CCC4=O)[C@@H]1C=CO[C@@H]1O2 [B1]
effective dose for the induction of liver tumors (rat, in vivo): approximately 10 mg per day

CN(C)N=O [dimethylnitrosamine]
estimated effective dose, hepatocarcinogens (for comparison): 750 mg/day

CN(C)c1ccc(N=Nc2ccccc2)cc1 [butteryellow]
estimated effective dose, hepatocarcinogens (for comparison): 9,000 mg/day
